Assays:
[1] = target: T1, CYP3A4 (Homo sapiens, UniProt P08684); assay: Cytochrome oxidase P450 inhibition test, CYP3A4; format: in vitro ADME; details: liver microsome incubation
T1 construct: from tissue; host or cells: liver microsome
Experimental: (§1) 100 mM K-Buffer: 9.5 mL of stock solution A was mixed with 40.5 mL of stock solution B, the total volume was adjusted to […] with ultrapure water, and the buffer was titrated to pH 7.4 with KOH or H3PO4. • Starting material A (1 M potassium dihydrogen phosphate): 136.5 g of potassium dihydrogen phosphate in 1 L of water. • Stock B […] in 1 L of water. The test substance powder was prepared into a stock solution with a certain concentration using DMSO or other organic solvents, which was then further diluted using a proper organic solvent. The extracorporeal incubation system for CYP450 enzyme metabolism phenotype study was biochemical reaction of a prepared liver microsome, a redox coenzyme, and an enzyme-specific selective inhibitor in simulated physiological temperature and environment. The concentration of the parent drug or a metabolite thereof in the incubation solution was determined by LC-MS/MS.

[2] = target: T2, CYP1A2 (Homo sapiens, UniProt P05177); assay: Cytochrome oxidase P450 inhibition test, CYP1A2; format: in vitro ADME; details: liver microsome incubation
T2 construct: from tissue; host or cells: liver microsome
T2 sequence (P05177 1-516): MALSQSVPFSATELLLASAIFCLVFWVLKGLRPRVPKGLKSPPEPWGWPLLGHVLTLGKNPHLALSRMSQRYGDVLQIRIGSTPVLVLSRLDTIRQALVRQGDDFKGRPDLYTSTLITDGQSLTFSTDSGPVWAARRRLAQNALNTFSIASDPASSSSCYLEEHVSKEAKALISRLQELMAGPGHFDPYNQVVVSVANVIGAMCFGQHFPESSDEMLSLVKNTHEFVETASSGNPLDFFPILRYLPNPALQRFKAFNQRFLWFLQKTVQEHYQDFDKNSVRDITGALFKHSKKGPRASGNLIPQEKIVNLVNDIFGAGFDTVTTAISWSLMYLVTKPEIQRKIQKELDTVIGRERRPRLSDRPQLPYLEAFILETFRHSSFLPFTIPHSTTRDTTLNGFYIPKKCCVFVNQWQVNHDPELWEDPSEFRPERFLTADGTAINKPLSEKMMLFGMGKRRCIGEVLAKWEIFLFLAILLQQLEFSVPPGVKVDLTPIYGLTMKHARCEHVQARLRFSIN
Experimental: as §1

[3] = Metabolic stability test in hepatocytes, human; format: in vitro ADME; details: hepatocytes (suspension), Table 5: metabolic stability in hepatocytes, up to 90 min, read-out: Metabolic half-life in human liver microsome (T½, min)
Experimental: This experimental example was used to test the metabolic stability of the compounds in hepatocytes.
A suspension of hepatocytes was prepared at 0.5×10^6/mL with a pre-heated medium, then 198 μL of the pre-heated cell suspension was added to a 96-well plate. To each well of the 96-well plate, 2 μL of the test compound was added so that the final concentration was 1 μM, and 2 replicate wells were set. For the T=0 min sample, the compound was mixed well with the cells for 1 min, then […] was immediately added to 125 μL of a stop solution (an acetonitrile solution containing 200 ng/mL tolbutamide and 200 ng/mL labetalol) under an ice bath and mixed well. At the same time, all the plates were placed in an incubator at 37° C. with 5% CO2, with the shaker set at 600 rpm. The sample was mixed well at 15, 30, 60, and 90 min of incubation, respectively, and 25 μL of the sample was added to 125 μL of a stop solution (an acetonitrile solution containing 200 ng/mL tolbutamide and 200 ng/mL labetalol) under an ice bath, mixed well, and shaken at 500 rpm for 10 min. Subsequently, the plate was centrifuged for 20 min at 3220×g at 4° C. […] Subsequently, analysis was carried out using LC-MS/MS, and intrinsic clearance (CLint) and half-life (T½) were calculated.

[4] = test system: Human pancreatic cancer cells KP-4; assay: Mouse xenograft tumor pharmacodynamic model, KP-4; format: in vivo; details: KP-4 xenograft, 29 days of administration
Experimental: In this example, the in vivo efficacy of the compound in a mouse xenograft tumor model after intragastric (PO) administration was tested.
Human pancreatic cancer cells KP-4 were cultured in monolayer in vitro under the condition of 1640 medium containing […] and […] and streptomycin, and the culture was carried out at 37° C. with 5% CO2. The cells were digested with trypsin three times a week for passaging. When the saturation degree of the cells was 80-90%, the cells were collected, counted and inoculated. 0.1 mL (5×10^6 cells) of KP-4 cells were subcutaneously inoculated on the right back of each mouse. On day 34 after inoculation of the cells, the mean tumor volume reached 154 mm^3. The mice were randomly grouped for administration and intragastrically dosed once daily. Changes in body weight and tumor volume were recorded. After 29 days of administration, the experiment was ended. Tumor volume changes and mouse body weight changes were counted and analyzed. AG270 (CAS: 2201056-66-6) was the positive control compound.

T1 sequence (P08684 whole entry): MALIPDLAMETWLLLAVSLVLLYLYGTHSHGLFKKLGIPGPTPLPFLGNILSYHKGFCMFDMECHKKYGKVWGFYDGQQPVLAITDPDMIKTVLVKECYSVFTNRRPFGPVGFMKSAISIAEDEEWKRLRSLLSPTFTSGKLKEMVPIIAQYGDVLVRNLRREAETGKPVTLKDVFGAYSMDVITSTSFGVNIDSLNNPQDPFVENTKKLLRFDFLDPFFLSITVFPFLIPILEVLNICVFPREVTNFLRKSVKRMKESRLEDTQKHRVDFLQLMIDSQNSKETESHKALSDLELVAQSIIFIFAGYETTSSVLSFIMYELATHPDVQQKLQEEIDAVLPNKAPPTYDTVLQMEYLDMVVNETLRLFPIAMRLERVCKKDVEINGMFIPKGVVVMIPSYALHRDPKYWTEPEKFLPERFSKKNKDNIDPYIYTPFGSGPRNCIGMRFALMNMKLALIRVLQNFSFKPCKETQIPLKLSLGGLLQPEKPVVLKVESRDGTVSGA

Question: For `Cc1ncccc1-n1c(=O)c2nn(C)cc2c2ccc(C(F)(F)F)nc21` (single isomer, unassigned) [Compound B180], which IC50 [1] is on record?
Answer: > 10 µM

Question: And the IC50 [2]?
Answer: > 10 µM

Question: For `Cn1cc2c(n1)c(=O)n(-c1cccnc1)c1cc(Cl)ccc21` [Compound B12], which IC50 [1] is on record?
Answer: > 10 µM

Question: What about the IC50 [2] of the same molecule?
Answer: > 10 µM

Question: With `Cn1cc2c(n1)c(=O)n(-c1cccc3[nH]ncc13)c1cc(Cl)ccc21` [Compound B60] as the molecule, how does the IC50 [1] read?
Answer: > 10 µM

Question: What about the IC50 [2] of the same molecule?
Answer: > 10 µM

Question: With `Cn1cc2c(n1)c(=O)n(-c1cccnc1C1CC1)c1cc(Cl)c(F)cc21` [Compound B340] as the molecule, how does the half-life at 1 μM [3] read?
Answer: > 217 min

Question: Which “Tumor growth inhibition percentage (TGI)” value ([4]; PO 0.3 mg/kg once a day) does the source give for `Cn1cc2c(n1)c(=O)n(-c1cccc3[nH]ncc13)c1cc(Cl)c(F)cc21` [Compound B257] here?
Answer: once a day TGI = 66.25%

Question: What about the “Tumor growth inhibition percentage (TGI)” value ([4]; PO 1 mg/kg once a day) of the same molecule?
Answer: once a day TGI = 90.06%

Question: And the “Tumor growth inhibition percentage (TGI)” value ([4]; PO 3 mg/kg once a day)?
Answer: once a day TGI = 97.08%

Question: Which results are given for `Cn1cc2c(n1)c(=O)n(-c1cccc3[nH]ncc13)c1nc(C(F)(F)F)ccc21` [Compound B181]?
Answer: IC50 [1]: > 30 µM; half-life at 1 μM [3]: > 217 min; IC50 [2]: > 30 µM

Reference: US20240391923A1, “METHIONINE ADENOSYLTRANSFERASE 2A INHIBITOR FOR TREATING MTAP DELETION-TYPE CANCER” (SUZHOU GENHOUSE BIO CO., LTD., priority 2022, published 2024)
